Data set [1] can be described thus: method code SF-AS, from DOI: 10.1163/156856796x00098. The following applies: pH 7.4.
Data set [2] is described as follows: method code SF-RC, from DOI: 10.1016/j.nucmedbio.2006.06.006, PMID: 16934700. Conditions: pH 7.4.
A short description of data set [3]: method code SF-AS, from DOI: 10.1002/chin.198428254.
Experiment in data set [4]: not given
The source holds these as a separate data set.

Data set [5] is described as follows: method code SF, from DOI: 10.1016/0168-3659(92)90078-6. Conditions: pH 7.0.
Data set [6] in a line: method code SF-AS, from DOI: 10.1002/ps.2780160411.
Data set [7] in a line: method code SF-HPLC, from DOI: 10.1002/jps.10072, PMID: 11920751. The following applies: pH 7.4.
The nature of data set [8]: method code SF-AS, from DOI: 10.1021/jm00296a014, PMID: 5418493.
Experiment in data set [9]: not given
The source holds these as a separate data set.

Experiment in data set [10]: not given
This is another data set of the same source.

A short description of data set [11]: method code SF-AS, from DOI: 10.1021/jm00395a009, PMID: 3681892. Conditions: pH 7.4.
Data set [12] can be described thus: method code SF-RC, from DOI: 10.1016/s0969-8051(02)00326-8, PMID: 12234587. Conditions: pH 7.4.
Data set [13] is described as follows: method code SF-AS, from Dallet, P.; Dubost, J.; Colleter, J.; Audry, E.; Creuzet, M. (1985). QSAR in a series of alpha-adrenolitic molecules: optimization of physicochemical parameters. Eur J Med Chem, 20(6)551-557.
For data set [14] the following is noted: pH 7.4.
Experiment in data set [15]: not given
This is another data set of the same source.

Data set [16] can be described thus: method code SF-AS, from DOI: 10.1002/etc.5620180606.
Experiment in data set [17]: not given
This is another data set of the same source.

Experiment in data set [18]: not given
This is another data set of the same source.

A short description of data set [19]: method code SF-HPLC, from DOI: 10.1039/a702469j. The following applies: pH 7.0.
The nature of data set [20]: method code SF-AS, from DOI: 10.1248/cpb.32.5003, PMID: 6534549.
Data set [21] is described as follows: method code SF-HPLC, from DOI: 10.1016/s0021-9673(99)01336-9, PMID: 10757301.
A short description of data set [22]: method code SF-RC, from Godoy, N.; Valle, L.; Mena, P.; Gil, M. (1989). Synthesis, labeling and biodistribution of 99mTc-labelled bromoimino diacetic acids. Nucleotecnica, 9(17)25-32.
A short description of data set [23]: method code SF-HPLC, from DOI: 10.1023/a:1015862319927, PMID: 2062808. Conditions: pH 7.4.

As usually defined, the logD is lipophilicity at a set pH, counting ionised and neutral species. A low value points to lower lipophilicity. Compound `CCOP(=O)(CC(C)(C)[N+]([O-])=Cc1ccccc1)OCC` came in with a logD in data set [1] of 1.

In data set [2], `COc1ccc(-c2cc3ccccc3s2)cc1` showed a logD of 3.07.

As a reminder, the logP is the decadic logarithm of the partition coefficient of the neutral form, usually between octanol and water. Consider `O=C(NCCN1CCN2Cc3[nH]c4ccccc4c3CC2C1)c1ccccc1[N+](=O)[O-]` (stereo not given), for which, in [3], the logP is 1.8.

On to `CCCCC(CC)COP(=O)(Oc1ccccc1)Oc1ccccc1` (stereo not given), for which the logP came out at 5.

`Cc1nc(NCC(C)O)c(C#N)cc1-c1ccccc1` (stereo not given): the logP in data set [4] was 2.72.

`CCOP(=O)(CC(C)(C)[N+]([O-])=Cc1cc[n+]([O-])cc1)OCC` registered a logD in data set [1] of -0.74.

In [4], `Cc1nc(NCCCO)c(C#N)cc1-c1ccccc1` displayed a logP of 2.72.

In the case of `CCOP(=O)(CC(C)(C)[N+]([O-])=Cc1ccc(Cl)cc1)OCC`, the logD in data set [1] is 2.29.

`Cc1ccccc1C(=O)OCC1CCC(n2cnc3c(O)ncnc32)O1` (stereo not given) registered a logD in [5] of 1.02.

With `CC(C)CCCCCOC(=O)COc1ccc(Cl)cc1Cl`, the logP in data set [6] is 5.73.

In [7], `CC(=O)OCC(COC(C)=O)OCn1cnc2c(=O)[nH]c(N)nc21` had a logD of -0.78.

`O=C(O)C1c2ccccc2-c2ccccc21` registered a logP in data set [8] of 2.8.

Consider `COc1ccc(Cc2nccc3cc(OC)c(OC)cc23)cc1OC`, for which the logP in data set [9] stood at 2.95.

As for `Cc1nc(S(=O)(=O)Nc2c(F)cccc2F)nn1-c1ccccc1`, the logP in data set [10] is 3.2.

`Cc1ccc(Cl)c(Nc2ccccc2C(=O)O)c1Cl`: the lipophilicity (logP) in [9] turned out to be 5.9.

As to `CC(=O)OC[C@H]1O[C@@H](n2ccc(=O)[nH]c2=O)[C@H](OC(C)=O)[C@@H]1OC(C)=O`, in data set [11], the logD was -0.36.

Compound `O=C(NCCN1CCN2Cc3[nH]c4ccccc4c3CC2C1)c1ccccc1` (stereo not given) showed a logP in data set [3] of 1.52.

In data set [6], `COc1c(Br)cccc1C(=CC(=O)C(C)(C)C)n1cncn1` had a logP of 3.2.

Turning to `CN(C)c1ccc(-c2cc3ccc(I)cc3o2)cc1`, the logD in data set [12] was 2.12.

In [13], `Cc1cc(OCCNCC2CC(=O)c3ccccc3C2=O)c(C(C)C)cc1O` (stereo not given) showed a logP of 4.25.

`c1ccc2c3c([nH]c2c1)CN1CCNCC1C3` (stereo not given): the logP in [3] was 0.36.

`CSC[S@](=O)C[C@H](C)NC(=O)/C=C/c1c(C)[nH]c(=O)[nH]c1=O`: the logD in data set [14] is -0.7.

As to `ON=C1CCN(CCCc2ccccc2)CC1`, the logP in data set [15] was determined as 2.8.

In data set [8], `O=C(O)C1c2ccccc2Sc2ccccc21` had a lipophilicity (logP) of 2.57.

Turning to `CN(C)c1ccc(-c2cc3cc(I)ccc3o2)cc1`, in [12], the log distribution coefficient (logD) came out at 2.35.

Compound `Nc1c(Cl)c(Cl)c(N)c2c1C(=O)c1ccccc1C2=O` returned a logP in data set [16] of 4.56.

Consider `N#CCN(CCO)c1ccc(N=Nc2nc3ccc([N+](=O)[O-])cc3s2)cc1`, for which, in [16], the logP amounted to 4.08.

On to `FCCCOc1ccc(-c2cc3ccccc3s2)cc1`, for which the logD in data set [2] stood at 2.88.

With `CCCCOP(=O)(OCCCC)Oc1ccccc1`, the logP was 3.23.

For the compound `FC(F)C(F)(F)OCC1COC(Cn2cncn2)(c2ccc(Cl)cc2Cl)O1` (stereo not given), the logP in data set [17] amounted to 3.2.

`COc1ccc(-c2cc(C#N)c(Cl)nc2C)cc1OC`: the logP in data set [4] came to 2.86.

`CCCCCSCS(=O)CC(CO)NC(=O)/C=C/c1c(C)[nH]c(=O)[nH]c1=O` (stereo not given) gave a logD in data set [14] of 0.6.

For `O=C(O)C1c2ccccc2Oc2ccccc21`, in data set [8], the logP was found to be 2.23.

`Cc1cc(C)cc(OP(=O)(Oc2cc(C)cc(C)c2)Oc2cc(C)cc(C)c2)c1` gave a logP of 5.26.

As for `COCC1OC(n2ccc(=O)n(Cc3ccccc3)c2=O)C(OC)C1OC` (stereo not given), the logD in data set [11] is 1.81.

Compound `CCCCC(=O)OC[C@@H]1CC[C@H](n2cnc3c(=O)[nH]cnc32)O1` registered a logD in [5] of 0.65.

In data set [15], `Clc1cccc(Cl)c1C=NN=c1ccn(CCc2c(Cl)cccc2Cl)cc1` registered a lipophilicity (logP) of 4.

Compound `Cc1c2ccccc2c(C)c2ccccc12` showed a log partition coefficient (logP) in data set [18] of 5.25.

As to `CCOP(=O)(OCC)C(C)(C)[N+]([O-])=Cc1cccnc1`, the pH-dependent lipophilicity (logD) in data set [19] stood at 0.41.

In the case of `CCCC(=O)OCC(CO)OCn1cnc2c(=O)[nH]c(N)nc21` (stereo not given), in data set [7], the logD is -0.3.

Take `CC(=O)Oc1ccc(OCCN(C)C)cc1C`: the logP in [13] worked out at 1.64.

In turn, `c1ccc2c(c1)Cc1cc3ccccc3cc1-2` displayed a logP in data set [18] of 5.75.

On to `Clc1cccc(Cl)c1C=NN=c1ccn(CCCc2ccccc2)cc1`, for which the log partition coefficient (logP) in data set [15] was 3.9.

With `CCc1nc(S(=O)(=O)Nc2c(F)cccc2F)nn1-c1ccccc1`, the logP in data set [10] was 3.7.

With `O=C(Cc1ccccc1)Nc1ccccc1[N+](=O)[O-]`, the logP in data set [20] was found to be 2.73.

`Cc1cccc2c1Cc1ccccc1-2` gave a logP in [18] of 4.97.

In data set [20], `Nc1ccccc1NC(=O)Cc1ccccc1` gave a logP of 1.45.

As to `CC(=O)OCC1=C(C(=O)O)N2C(=O)C(NC(=O)Cc3cccs3)C2SC1` (stereo not given), the logP in [21] amounted to 0.08.

In the case of `Cc1ccc(Br)c(C)c1NC(=O)CN(CC(=O)O)CC(=O)O`, in [22], the logP was determined as 0.28.

`CCCCC(=O)OCC(COC(=O)CCCC)OCn1cnc2c(=O)[nH]c(N)nc21` yielded a logD in data set [7] of 0.83.

For the compound `CCCC1COC(Cn2cncn2)(c2ccc(Cl)cc2Cl)O1` (stereo not given), the logP in data set [17] came out at 3.4.

`CC(=O)OCC1=C(C(=O)O)N2C(=O)[C@@H](NC(=O)CSc3ccncc3)[C@H]2SC1` had a logP in data set [21] of -0.15.

`CO/N=C(\C(=O)N[C@@H]1C(=O)N2C(C(=O)O)=C(COC(C)=O)CS[C@H]12)c1csc(N)n1`: the logP in data set [21] is -0.13.

As to `CCOP(=O)(OCC)C(C)(C)[N+]([O-])=Cc1cc[n+]([O-])cc1`, the pH-dependent lipophilicity (logD) in [19] is -0.68.

In [6], `CS(=O)(=O)NC(=O)c1cc(Oc2ccc(C(F)(F)F)cc2Cl)ccc1[N+](=O)[O-]` showed a logP of 2.9.

On to `CCCCc1ccc(NC(=O)CN(CC(=O)O)CC(=O)O)cc1Br`, for which the logP in [22] was -0.1.

On to `CCN(CC)Cc1cc(Nc2ccnc3cc(Cl)ccc23)ccc1O`, for which, in data set [9], the log partition coefficient (logP) was 4.2.

Take `CCOP(=O)(OCC)C(C)(C)[N+]([O-])=Cc1ccncc1`: the log distribution coefficient (logD) in data set [19] is 0.32.

Regarding `FCCCNc1ccc(-c2cc3ccccc3s2)cc1`, the logD in data set [2] was found to be 3.56.

`Cc1cc(OCCN(C)C)c(C(C)C)cc1OS(=O)(=O)CC12CCC(CC1=O)C2(C)C` (stereo not given) returned a logP in data set [13] of 4.37.

With `Cc1cc(C)c(NC(=O)CN(CC(=O)O)CC(=O)O)c(C)c1Br`, the logP in data set [22] is -0.11.

`Oc1ccc(-c2cc3cc(I)ccc3o2)cc1` had a logD in [12] of 2.97.

The compound `Cc1ccc(Cl)c(NS(=O)(=O)c2nc(C)n(-c3ccccc3)n2)c1Cl` yielded a logP in data set [10] of 4.4.

Turning to `O=c1c(F)cn(C2CCCO2)c(=O)n1Cc1ccccc1` (stereo not given), the pH-dependent lipophilicity (logD) in data set [11] was found to be 1.38.

Take `Nc1c(Oc2ccc(CN3CCCCCC3=O)cc2)cc(O)c2c1C(=O)c1ccccc1C2=O`: the logP in data set [16] was 5.3.

`O=C(OC[C@H]1O[C@@H](n2cc(I)c(=O)[nH]c2=O)C[C@@H]1O)c1ccc([N+](=O)[O-])cc1`: the logD in [23] turned out to be 1.24.

With `COc1ccccc1NC(=O)Cc1ccccc1`, the logP in [20] came out at 2.68.

`OC(Cn1cncn1)(c1ccc(F)cc1)c1ccccc1F` (stereo not given) had a logP in data set [17] of 2.3.

For the compound `CSC[S@](=O)C[C@H](CO)NC(=O)/C=C/c1c(C)[nH]c(=O)[nH]c1=O`, the logD in data set [14] was -1.71.

For `CCCC(=O)OC[C@@H]1CC[C@H](n2cnc3c(=O)[nH]cnc32)O1`, the pH-dependent lipophilicity (logD) in [5] amounted to 0.11.

Source of the values: the SangsterLogP compilation.
